Laboratory results reported in patent US10633407B2, “14-membered ketolides and methods of their preparation and use” (President and Fellows of Harvard College, priority 2014, dated 2020).
Converted amounts (≈) assume the structure as drawn.

Key:
Assay in all cases: CLSI broth dilution MIC determination
Type in all cases: cell-based
[1] = tested on: A. baumannii MP-576 Clinical-MDR; details: Acinetobacter baumannii, read-out: MIC
[2] = tested on: P. aeruginosa MP-7 PAO1; details: Pseudomonas aeruginosa, read-out: MIC
[3] = tested on: E. coli MP-541 clinical; details: Escherichia coli, MP541CLINICAL, read-out: MIC
Source text: (§1) MIC data was collected for the novel macrolides that this platform has produced against over 21 unique strains of B. subtilis, E. coli, S. aureus, S. pneumoniae, and H. influenzae, including several multidrug-resistant strains, with a special focus on macrolide resistant mechanisms (vide supra). Azithromycin (Azithro) and Solithromycin (Solithro) were included as a control macrolides in many cases. CLSI standard procedures for broth dilution MIC determination were used. […] These genotypes can be constitutive or inducible.

[4] = tested on: S. aureus (MRSA) MP-513 ST-228 cErm (Clinical-cErm); details: Staphylococcus aureus, read-out: MIC
Source text: as §1

[5] = tested on: S. aureus MRSA: USA300; details: Staphylococcus aureus; S. aureus MRSA: USA300 (MP-549, msr(a)); read-out: MIC
Source text: as §1

[6] = tested on: E. coli MP-532 clinical-cErmB; details: Escherichia coli
Source text: as §1

[7] = tested on: S. aureus ATCC 29213; details: Staphylococcus aureus, ATCC29213; S. aureus ATCC 29213 (MP-12); read-out: MIC
Source text: as §1

[8] = tested on: E. coli ATCC 25922; details: Escherichia coli, ATCC25922, E. coli ATCC 25922 (MP-4); read-out: MIC
Source text: as §1

[9] = tested on: E. coli MP-9 ATCC25922:tolC; details: Escherichia coli, ATCC25922
Source text: as §1

[10] = tested on: S. aureus MP-17 ATCCBAA-977 (BAA 977 iErm); details: Staphylococcus aureus; S. aureus MP-17, ATCCBAA-977, iErm; read-out: MIC
Source text: as §1

[11] = tested on: K. pneumoniae MP-546 Clinical-MDR; details: Klebsiella pneumoniae, read-out: MIC
[12] = tested on: P. aeruginosa MP-8 PAO1:mex (mex-oprM-deletion); details: Pseudomonas aeruginosa, PAO1
[13] = tested on: K. pneumoniae MP-548 clinical; details: Klebsiella pneumoniae, MP548CLINICAL, read-out: MIC
[14] = tested on: A. baumannii ATCC 19606; details: Acinetobacter baumannii, ATCC19606; A. baumannii ATCC 19606 (MP-15); read-out: MIC
[15] = tested on: K. pneumoniae ATCC 10031; details: Klebsiella pneumoniae, ATCC10031, K. pneumoniae ATCC 10031 (MP-14); read-out: MIC
[16] = tested on: P. aeruginosa ATCC 27853; details: Pseudomonas aeruginosa, ATCC27853; P. aeruginosa ATCC 27853 (MP-3); read-out: MIC
[17] = tested on: A. baumannii MP-577 Clinical-AZT low; details: Acinetobacter baumannii, read-out: MIC

Row | Structure (SMILES) | MIC [1] | MIC [2] | MIC [3] | MIC [4] | MIC [5] | MIC [6] | MIC [7] | MIC [8] | MIC [9] | MIC [10] | MIC [11] | MIC [12] | MIC [13] | MIC [14] | MIC [15] | MIC [16] | MIC [17]
1 | CC[C@H]1OC(=O)[C@@](C)(F)C(=O)[C@H](C)[C@@H](O[C@@H]2OC(C)CC(N(C)C)C2O)[C@](C)(OC)C[C@@H](C)C(=O)[C@H](C)[C@H]2N(CC#CCn3cc(-c4cccc(F)n4)nn3)C(=O)O[C@]12C (some centres unmarked) [FSM-100627] | > 64 µg/mL | 64 µg/mL (≈ 75.7 µM) | 8 µg/mL (≈ 9.47 µM) | 32 µg/mL (≈ 37.9 µM) | 0.125 µg/mL (≈ 0.148 µM) | > 64 µg/mL | 0.06 µg/mL (≈ 0.071 µM) | 16 µg/mL (≈ 18.9 µM) | 1 µg/mL (≈ 1.18 µM) | 0.06 µg/mL (≈ 0.071 µM) | 64 µg/mL (≈ 75.7 µM) | 4 µg/mL (≈ 4.73 µM) | 32 µg/mL (≈ 37.9 µM) | 8 µg/mL (≈ 9.47 µM) | 2 µg/mL (≈ 2.37 µM) | 64 µg/mL (≈ 75.7 µM) | 32 µg/mL (≈ 37.9 µM)
2 | CC[C@H]1OC(=O)[C@@](C)(F)C(=O)[C@H](C)[C@@H](O[C@@H]2OC(C)CC(N(C)C)C2O)[C@](C)(OC)C[C@@H](C)C(=O)[C@H](C)[C@H]2N(CC#CCn3cc(-c4cnc(N)s4)nn3)C(=O)O[C@]12C (some centres unmarked) [FSM-100633] | > 64 µg/mL | 32 µg/mL (≈ 37.7 µM) | 8 µg/mL (≈ 9.43 µM) | 64 µg/mL (≈ 75.5 µM) | 0.125 µg/mL (≈ 0.147 µM) | > 64 µg/mL | 0.125 µg/mL (≈ 0.147 µM) | 8 µg/mL (≈ 9.43 µM) | 1 µg/mL (≈ 1.18 µM) | 0.125 µg/mL (≈ 0.147 µM) | 64 µg/mL (≈ 75.5 µM) | 4 µg/mL (≈ 4.72 µM) | 32 µg/mL (≈ 37.7 µM) | 4 µg/mL (≈ 4.72 µM) | 2 µg/mL (≈ 2.36 µM) | 32 µg/mL (≈ 37.7 µM) | 16 µg/mL (≈ 18.9 µM)
3 | CC[C@H]1OC(=O)[C@H](C)C(=O)[C@H](C)[C@@H](O[C@@H]2OC(C)CC(N(C)C)C2O)[C@](C)(OC)C[C@@H](C)C(=O)[C@H](C)[C@H]2N(CC#CCn3cc(-c4cccnn4)nn3)C(=O)O[C@]12C (some centres unmarked) [FSM-130216] | > 64 µg/mL | > 64 µg/mL | 64 µg/mL (≈ 79 µM) | > 64 µg/mL | 0.5 µg/mL (≈ 0.617 µM) | > 64 µg/mL | 0.25 µg/mL (≈ 0.309 µM) | 32 µg/mL (≈ 39.5 µM) | 4 µg/mL (≈ 4.94 µM) | 0.25 µg/mL (≈ 0.309 µM) | > 64 µg/mL | 16 µg/mL (≈ 19.8 µM) | > 64 µg/mL | 16 µg/mL (≈ 19.8 µM) | 4 µg/mL (≈ 4.94 µM) | > 64 µg/mL | 64 µg/mL (≈ 79 µM)
4 | CC[C@H]1OC(=O)[C@@](C)(F)C(=O)[C@H](C)[C@@H](O[C@@H]2OC(C)CC(N(C)C)C2O)[C@](C)(OC)C[C@@H](C)C(=O)[C@H](C)[C@H]2N(CC#CCn3cc(-c4cccnn4)nn3)C(=O)O[C@]12C (some centres unmarked) [FSM-130217] | > 64 µg/mL | > 64 µg/mL | 32 µg/mL (≈ 38.6 µM) | > 64 µg/mL | 0.25 µg/mL (≈ 0.302 µM) | > 64 µg/mL | 0.25 µg/mL (≈ 0.302 µM) | 32 µg/mL (≈ 38.6 µM) | 4 µg/mL (≈ 4.83 µM) | 0.25 µg/mL (≈ 0.302 µM) | > 64 µg/mL | 16 µg/mL (≈ 19.3 µM) | > 64 µg/mL | 16 µg/mL (≈ 19.3 µM) | 8 µg/mL (≈ 9.66 µM) | > 64 µg/mL | 32 µg/mL (≈ 38.6 µM)
5 | CC[C@H]1OC(=O)[C@H](C)C(=O)[C@H](C)[C@@H](O[C@@H]2OC(C)CC(N(C)C)C2O)[C@](C)(OC)C[C@@H](C)C(=O)[C@H](C)[C@H]2N(NCCCn3nc4ccccc4n3)C(=O)O[C@]12C (some centres unmarked) [FSM-140132] | > 64 µg/mL | > 64 µg/mL | 32 µg/mL (≈ 40.7 µM) | > 64 µg/mL | 0.5 µg/mL (≈ 0.635 µM) | > 64 µg/mL | 0.25 µg/mL (≈ 0.318 µM) | 16 µg/mL (≈ 20.3 µM) | 2 µg/mL (≈ 2.54 µM) | 0.25 µg/mL (≈ 0.318 µM) | > 64 µg/mL | 8 µg/mL (≈ 10.2 µM) | 64 µg/mL (≈ 81.3 µM) | 32 µg/mL (≈ 40.7 µM) | 4 µg/mL (≈ 5.08 µM) | > 64 µg/mL | 32 µg/mL (≈ 40.7 µM)
6 | CC[C@H]1OC(=O)[C@H](C)C(=O)[C@H](C)[C@@H](O[C@@H]2OC(C)CC(N(C)C)C2O)[C@](C)(OC)C[C@@H](C)C(=O)[C@H](C)[C@H]2N(NCCCn3nnc4ccccc43)C(=O)O[C@]12C (some centres unmarked) [FSM-140133] | > 64 µg/mL | 64 µg/mL (≈ 81.3 µM) | 16 µg/mL (≈ 20.3 µM) | > 64 µg/mL | 0.5 µg/mL (≈ 0.635 µM) | > 64 µg/mL | 0.25 µg/mL (≈ 0.318 µM) | 16 µg/mL (≈ 20.3 µM) | 4 µg/mL (≈ 5.08 µM) | 0.25 µg/mL (≈ 0.318 µM) | > 64 µg/mL | 8 µg/mL (≈ 10.2 µM) | 64 µg/mL (≈ 81.3 µM) | 8 µg/mL (≈ 10.2 µM) | 4 µg/mL (≈ 5.08 µM) | 64 µg/mL (≈ 81.3 µM) | 64 µg/mL (≈ 81.3 µM)
7 | CC[C@H]1OC(=O)[C@H](C)C(=O)[C@H](C)[C@@H](O[C@@H]2OC(C)CC(N(C)C)C2O)[C@](C)(OC)C[C@@H](C)C(=O)[C@H](C)[C@H]2N(NC/C=C/c3ccnc4ccccc34)C(=O)O[C@]12C (some centres unmarked) [FSM-140135] | > 64 µg/mL | > 64 µg/mL | > 64 µg/mL | > 64 µg/mL | 2 µg/mL (≈ 2.52 µM) | > 64 µg/mL | 2 µg/mL (≈ 2.52 µM) | > 64 µg/mL | 16 µg/mL (≈ 20.1 µM) | 2 µg/mL (≈ 2.52 µM) | > 64 µg/mL | 32 µg/mL (≈ 40.3 µM) | > 64 µg/mL | > 64 µg/mL | 8 µg/mL (≈ 10.1 µM) | > 64 µg/mL | > 64 µg/mL
